Measurements as given in US20250170258A1, “DOSAGE REGIMEN” (priority 2022, published 2025).

System: pancreatic cancer PAXF 1657 patient-derived xenograft
Assay: pancreatic cancer PAXF 1657 patient-derived xenograft model
Type: in vivo
Conditions: PAXF 1657 PDX, tested alone (single agent)
Protocol: Gemcitabine is a nucleoside metabolic inhibitor. It inhibits DNA synthesis by inhibiting the ribonucleotide reductase, cell cycle-specific for the S-phase (also blocks cellular progression at G1/S-phase). It has been used as monotherapy or combination chemotherapy to treat various cancers. […] ADCT-601 and gemcitabine were tested either alone or in combination in the pancreatic cancer PAXF 1657 patient-derived xenograft model.

## Nc1ccn([C@@H]2O[C@H](CO)[C@@H](O)C2(F)F)c(=O)n1 [gemcitabine]
  anti-tumour activity: limited anti-tumour activity
